Patent publication US4015974A, “Amido phosphorothiolates” (priority 1972, dated 1977)

Columns and labels:
Assay type in all cases: in vivo
[1] = tested on: common lambsquarter (Chenopodium album); test: Pre-emergence application, herbicidal effect on common lambsquarter (Table 1); design: key: 0: not damaged; 5: completely killed; conditions: 20 days after application, score 0-5
Text: (§1) Seeds of barnyard grass (Echinochloa crus-galli) and large crabgrass (Digitaria sanguinalis) as representatives of grassy weeds and those of radish, redroot pigweed (Amaranthus retroflexus), common purslane (Portulaca oleracea) and common lambsquarter (Chenopodium album) as representatives of broad-leaved weeds were individually sowed in flower pots of about 10 cm. in diameter. After covering the seeds with soil, test compounds as shown in Table 1 were individually applied to the soil treatment. Thereafter the plants were grown in a green house and 20 days after application the herbicidal effects of the compounds were observed, the results of which are as shown in Table 1.
(§2) Herbicidal effects were evaluated by the numerals ranging from 0 (not damaged) to 5 (completely killed). All the test compounds were used in the form of wettable powder and diluted with water before application.

[2] = tested on: large crabgrass (Digitaria sanguinalis); test: Pre-emergence application, herbicidal effect on large crabgrass (Table 1); design: key: 0: not damaged; 5: completely killed; conditions: 20 days after application, score 0-5
Text: as §1, §2

[3] = tested on: common purslane (Portulaca oleracea); test: Pre-emergence application, herbicidal effect on common purslane (Table 1); design: key: 0: not damaged; 5: completely killed; conditions: 20 days after application, score 0-5
Text: as §1, §2

radish = test: Pre-emergence application, herbicidal effect on radish (Table 1); design: key: 0: not damaged; 5: completely killed; conditions: 20 days after application, score 0-5
Text: as §1, §2

rice = test: Water application, phytotoxicity on rice (Table 2); design: key: 0: no effect; 1: very slightly affected; 2: slightly affected; 3: moderately affected; 4: considerably affected; 5: completely killed; conditions: 25 days, score 0-5
Text: (§3) Wagner pots of 14 cm. in diameter, which had been packed with 1.5 kg. of paddy field soil, were brought into the state of paddy fields. To the pots were transplanted rice seedlings at the 3-leave stage. Further, seeds of barnyard grass (Echinochloa crus-galli) were sowed in the pots and required amounts of test compounds were applied to the soil under water lodged condition. 25 days after application, the degrees of herbicidal activity and phytotoxity were investigated on above-mentioned plants which had been transplanted and sowed, and on broad-leaved weeds, e.g., monochoria (Monochoria viaginalis Presl.), false pimpernel (Linderna pyxidaria) and toothcup (Rotala indica Koehue), which had been spontaneously germinated. The test compounds were used in the form of wettable powder. The herbicidal effects and the phytotoxity were evaluated as follows by the numerals ranging from 0 to 5.

[4] = tested on: barnyard grass (Echinochloa crus-galli); test: Water application, herbicidal effect on barnyard grass (Table 2); design: key: 0: not damaged; 5: completely killed; conditions: 25 days, score 0-5
Text: as §3

[5] = tested on: barnyard grass (Echinochloa crus-galli); test: Pre-emergence application, herbicidal effect on barnyard grass (Table 1); design: key: 0: not damaged; 5: completely killed; conditions: 20 days after application, score 0-5
Text: as §1, §2

[6] = tested on: broad-leaved weeds, e.g., monochoria, false pimpernel and toothcup; test: Water application, herbicidal effect on broad-leaved weeds (Table 2); design: key: 0: not damaged; 5: completely killed; conditions: 25 days, score 0-5
Text: as §3

[7] = tested on: redroot pigweed (Amaranthus retroflexus); test: Pre-emergence application, herbicidal effect on redroot pigweed (Table 1); design: key: 0: not damaged; 5: completely killed; conditions: 20 days after application, score 0-5
Text: as §1, §2

Compound	Herbicidal effect, common lambsquarter ([1]; 10 g./a.)	Herbicidal effect, common lambsquarter ([1]; 20 g./a.)	Herbicidal effect, common lambsquarter ([1]; 40 g./a.)	Herbicidal effect, large crabgrass ([2]; 10 g./a.)	Herbicidal effect, large crabgrass ([2]; 20 g./a.)	Herbicidal effect, large crabgrass ([2]; 40 g./a.)	Herbicidal effect, common purslane ([3]; 10 g./a.)	Herbicidal effect, common purslane ([3]; 20 g./a.)	Herbicidal effect, common purslane ([3]; 40 g./a.)	Herbicidal effect, radish (radish; 10 g./a.)	Herbicidal effect, radish (radish; 20 g./a.)	Herbicidal effect, radish (radish; 40 g./a.)	Phytotoxicity on rice (rice; 10 g/a)	Phytotoxicity on rice (rice; 20 g/a)	Phytotoxicity on rice (rice; 40 g/a)	Herbicidal effects, barnyard grass ([4]; 10 g/a)	Herbicidal effects, barnyard grass ([4]; 20 g/a)	Herbicidal effects, barnyard grass ([4]; 40 g/a)	Herbicidal effect, barnyard grass ([5]; 10 g./a.)	Herbicidal effect, barnyard grass ([5]; 20 g./a.)	further results
C=CCSP(=O)(OCCC)SCC(=O)N1CCCCC1C (stereo not drawn) [Compound 70]	5	5	5	5	5	5	5	5	5	0	0	0	0	0	2	5	5	5	5	5	Herbicidal effect, barnyard grass ([5]; 40 g./a.): 5; Herbicidal effects, broad-leaved weeds ([6]; 10 g/a): 5; Herbicidal effects, broad-leaved weeds ([6]; 20 g/a): 5; Herbicidal effects, broad-leaved weeds ([6]; 40 g/a): 5; Herbicidal effect, redroot pigweed ([7]; 10 g./a.): 5; Herbicidal effect, redroot pigweed ([7]; 20 g./a.): 5; Herbicidal effect, redroot pigweed ([7]; 40 g./a.): 5
CCOP(=O)(SCC)SCC(=O)N1CCCC(C)C1 (stereo not drawn) [Compound 71]	4	4	5	5	5	5	4	5	5	0	1	2	0	0	0	5	5	5	5	5	Herbicidal effect, barnyard grass ([5]; 40 g./a.): 5; Herbicidal effects, broad-leaved weeds ([6]; 10 g/a): 5; Herbicidal effects, broad-leaved weeds ([6]; 20 g/a): 5; Herbicidal effects, broad-leaved weeds ([6]; 40 g/a): 5; Herbicidal effect, redroot pigweed ([7]; 10 g./a.): 4; Herbicidal effect, redroot pigweed ([7]; 20 g./a.): 5; Herbicidal effect, redroot pigweed ([7]; 40 g./a.): 5
CCCCCSP(=O)(OCC)SCC(=O)N1CCCC(C)C1 (stereo not drawn) [Compound 72]	4	4	5	5	5	5	3	4	5	0	0	0	0	0	0	5	5	5	4	5	Herbicidal effect, barnyard grass ([5]; 40 g./a.): 5; Herbicidal effects, broad-leaved weeds ([6]; 10 g/a): 5; Herbicidal effects, broad-leaved weeds ([6]; 20 g/a): 5; Herbicidal effects, broad-leaved weeds ([6]; 40 g/a): 5; Herbicidal effect, redroot pigweed ([7]; 10 g./a.): 3; Herbicidal effect, redroot pigweed ([7]; 20 g./a.): 4; Herbicidal effect, redroot pigweed ([7]; 40 g./a.): 5
